Measurements published in the NIST ThermoML archive (doi:10.1021/je900503p).

What was measured:
[1] = xn = mol fraction of the nth substance listed; conditions: 101 kPa, Liquid
[2] = refractive index (Na D-line) (dimensionless); xn = mol fraction of the nth substance listed; conditions: 101 kPa, Liquid
[3] = relative permittivity at zero frequency (dimensionless); xn = mol fraction of the nth substance listed; conditions: 101 kPa, Liquid, Dekameter

O=C1CCCO1 [γ-butyrolactone] + CCC(C)O
Conditions | mass density [kg/m3] | refractive index | relative permittivity at zero frequency
[1], 293.15 K, x1 = 0.0564 | 820.99 | – | –
[1], 293.15 K, x1 = 0.1213 | 839.11 | – | –
[1], 293.15 K, x1 = 0.2541 | 877.55 | – | –
[1], 293.15 K, x1 = 0.3003 | 891.34 | – | –
[1], 293.15 K, x1 = 0.3895 | 918.62 | – | –
[1], 293.15 K, x1 = 0.4574 | 939.95 | – | –
[1], 293.15 K, x1 = 0.5005 | 953.71 | – | –
[1], 293.15 K, x1 = 0.5876 | 982.13 | – | –
[1], 293.15 K, x1 = 0.6442 | 1001.11 | – | –
[1], 293.15 K, x1 = 0.7127 | 1024.55 | – | –
[1], 293.15 K, x1 = 0.8006 | 1055.41 | – | –
[1], 293.15 K, x1 = 0.8554 | 1075.08 | – | –
[1], 293.15 K, x1 = 0.9262 | 1101.09 | – | –
[1], 293.15 K, x1 = 0.9785 | 1120.58 | – | –
[1], 298.15 K, x1 = 0.0564 | 817.52 | – | –
[1], 298.15 K, x1 = 0.1213 | 835.59 | – | –
[1], 298.15 K, x1 = 0.2541 | 873.9 | – | –
[1], 298.15 K, x1 = 0.3003 | 887.63 | – | –
[1], 298.15 K, x1 = 0.3895 | 914.8 | – | –
[1], 298.15 K, x1 = 0.4574 | 936.03 | – | –
[1], 298.15 K, x1 = 0.5005 | 949.73 | – | –
[1], 298.15 K, x1 = 0.5876 | 978.07 | – | –
[1], 298.15 K, x1 = 0.6442 | 996.91 | – | –
[1], 298.15 K, x1 = 0.7127 | 1020.25 | – | –
[1], 298.15 K, x1 = 0.8006 | 1050.96 | – | –
[1], 298.15 K, x1 = 0.8554 | 1070.55 | – | –
[1], 298.15 K, x1 = 0.9262 | 1096.44 | – | –
[1], 298.15 K, x1 = 0.9785 | 1115.89 | – | –
[1], 303.15 K, x1 = 0.0564 | 814 | – | –
[1], 303.15 K, x1 = 0.1213 | 831.99 | – | –
[1], 303.15 K, x1 = 0.2541 | 870.15 | – | –
[1], 303.15 K, x1 = 0.3003 | 883.83 | – | –
[1], 303.15 K, x1 = 0.3895 | 910.88 | – | –
[1], 303.15 K, x1 = 0.4574 | 932.02 | – | –
[1], 303.15 K, x1 = 0.5005 | 945.67 | – | –
[1], 303.15 K, x1 = 0.5876 | 973.9 | – | –
[1], 303.15 K, x1 = 0.6442 | 992.68 | – | –
[1], 303.15 K, x1 = 0.7127 | 1015.92 | – | –
[1], 303.15 K, x1 = 0.8006 | 1046.52 | – | –
[1], 303.15 K, x1 = 0.8554 | 1066.03 | – | –
[1], 303.15 K, x1 = 0.9262 | 1091.83 | – | –
[1], 303.15 K, x1 = 0.9785 | 1111.21 | – | –
[1], 313.15 K, x1 = 0.0564 | 805.57 | – | –
[1], 313.15 K, x1 = 0.1213 | 823.45 | – | –
[1], 313.15 K, x1 = 0.2541 | 861.53 | – | –
[1], 313.15 K, x1 = 0.3003 | 875.2 | – | –
[1], 313.15 K, x1 = 0.3895 | 902.14 | – | –
[1], 313.15 K, x1 = 0.4574 | 923.19 | – | –
[1], 313.15 K, x1 = 0.5005 | 936.83 | – | –
[1], 313.15 K, x1 = 0.5876 | 964.91 | – | –
[1], 313.15 K, x1 = 0.6442 | 983.59 | – | –
[1], 313.15 K, x1 = 0.7127 | 1006.75 | – | –
[1], 313.15 K, x1 = 0.8006 | 1037.12 | – | –
[1], 313.15 K, x1 = 0.8554 | 1056.44 | – | –
[1], 313.15 K, x1 = 0.9262 | 1081.97 | – | –
[1], 313.15 K, x1 = 0.9785 | 1101.4 | – | –
[2], 293.15 K, x1 = 0.1009 | – | 1.4004 | –
[2], 293.15 K, x1 = 0.2112 | – | 1.4009 | –
[2], 293.15 K, x1 = 0.3009 | – | 1.4021 | –
[2], 293.15 K, x1 = 0.4008 | – | 1.4043 | –
[2], 293.15 K, x1 = 0.5088 | – | 1.4076 | –
[2], 293.15 K, x1 = 0.6003 | – | 1.4112 | –
[2], 293.15 K, x1 = 0.7001 | – | 1.4162 | –
[2], 293.15 K, x1 = 0.8055 | – | 1.4221 | –
[2], 293.15 K, x1 = 0.9011 | – | 1.4285 | –
[2], 298.15 K, x1 = 0.1009 | – | 1.3976 | –
[2], 298.15 K, x1 = 0.2112 | – | 1.3978 | –
[2], 298.15 K, x1 = 0.3009 | – | 1.3986 | –
[2], 298.15 K, x1 = 0.4008 | – | 1.4005 | –
[2], 298.15 K, x1 = 0.5088 | – | 1.4036 | –
[2], 298.15 K, x1 = 0.6003 | – | 1.4071 | –
[2], 298.15 K, x1 = 0.7001 | – | 1.4119 | –
[2], 298.15 K, x1 = 0.8055 | – | 1.4175 | –
[2], 298.15 K, x1 = 0.9011 | – | 1.4236 | –
[2], 303.15 K, x1 = 0.1009 | – | 1.394 | –
[2], 303.15 K, x1 = 0.2112 | – | 1.3943 | –
[2], 303.15 K, x1 = 0.3009 | – | 1.3952 | –
[2], 303.15 K, x1 = 0.4008 | – | 1.3974 | –
[2], 303.15 K, x1 = 0.5088 | – | 1.4004 | –
[2], 303.15 K, x1 = 0.6003 | – | 1.4036 | –
[2], 303.15 K, x1 = 0.7001 | – | 1.4082 | –
[2], 303.15 K, x1 = 0.8055 | – | 1.4135 | –
[2], 303.15 K, x1 = 0.9011 | – | 1.4195 | –
[2], 313.15 K, x1 = 0.1009 | – | 1.3909 | –
[2], 313.15 K, x1 = 0.2112 | – | 1.3906 | –
[2], 313.15 K, x1 = 0.3009 | – | 1.3912 | –
[2], 313.15 K, x1 = 0.4008 | – | 1.3925 | –
[2], 313.15 K, x1 = 0.5088 | – | 1.3952 | –
[2], 313.15 K, x1 = 0.6003 | – | 1.3984 | –
[2], 313.15 K, x1 = 0.7001 | – | 1.4023 | –
[2], 313.15 K, x1 = 0.8055 | – | 1.4078 | –
[2], 313.15 K, x1 = 0.9011 | – | 1.4133 | –
[3], 293.15 K, x1 = 0.1009 | – | – | 17.91
[3], 293.15 K, x1 = 0.2112 | – | – | 19.08
[3], 293.15 K, x1 = 0.3009 | – | – | 20.56
[3], 293.15 K, x1 = 0.4008 | – | – | 22.53
[3], 293.15 K, x1 = 0.5088 | – | – | 25.16
[3], 293.15 K, x1 = 0.6003 | – | – | 27.69
[3], 293.15 K, x1 = 0.7001 | – | – | 30.91
[3], 293.15 K, x1 = 0.8055 | – | – | 34.66
[3], 293.15 K, x1 = 0.9011 | – | – | 38.29
[3], 298.15 K, x1 = 0.1009 | – | – | 16.66
[3], 298.15 K, x1 = 0.2112 | – | – | 17.89
[3], 298.15 K, x1 = 0.3009 | – | – | 19.48
[3], 298.15 K, x1 = 0.4008 | – | – | 21.48
[3], 298.15 K, x1 = 0.5088 | – | – | 24.01
[3], 298.15 K, x1 = 0.6003 | – | – | 26.59
[3], 298.15 K, x1 = 0.7001 | – | – | 29.67
[3], 298.15 K, x1 = 0.8055 | – | – | 33.02
[3], 298.15 K, x1 = 0.9011 | – | – | 37.47
[3], 303.15 K, x1 = 0.1009 | – | – | 16.75
[3], 303.15 K, x1 = 0.2112 | – | – | 18.21
[3], 303.15 K, x1 = 0.3009 | – | – | 19.37
[3], 303.15 K, x1 = 0.4008 | – | – | 21.28
[3], 303.15 K, x1 = 0.5088 | – | – | 23.71
[3], 303.15 K, x1 = 0.6003 | – | – | 26.26
[3], 303.15 K, x1 = 0.7001 | – | – | 29.48
[3], 303.15 K, x1 = 0.8055 | – | – | 33.39
[3], 303.15 K, x1 = 0.9011 | – | – | 36.73
[3], 313.15 K, x1 = 0.1009 | – | – | 16.09
[3], 313.15 K, x1 = 0.2112 | – | – | 17.48
[3], 313.15 K, x1 = 0.3009 | – | – | 18.55
[3], 313.15 K, x1 = 0.4008 | – | – | 20.43
[3], 313.15 K, x1 = 0.5088 | – | – | 22.86
[3], 313.15 K, x1 = 0.6003 | – | – | 25.55
[3], 313.15 K, x1 = 0.7001 | – | – | 28.79
[3], 313.15 K, x1 = 0.8055 | – | – | 32.73
[3], 313.15 K, x1 = 0.9011 | – | – | 36.05
